Experimental data published in patent US8633204B2 (Pfizer Inc., priority 2006, dated 2014).

How the values were obtained:
PI3-Kα = PI3-Kα (Mus musculus (Mouse), UniProt P42337); assay: PI3-Kα Biochemical Assay (fluorescence polarization kinase assay)
Summary of the method: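 Co-expressed mouse p110/p85 PI3-Kα (4 nM stock) acting on PI(4,5)P2 (60 μM stock) with ATP/MgCl2 in HEPES pH 7.4 buffer, 35 min at room temperature, then EDTA stop. PI(3,4,5)P3 product detected by displacement of TAMRA-PIP3 from Grip1 PH domain (FP, 535/580 nm). IC50 from sigmoidal fit of % inhibition.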

[1] = test system: PI3-K in BT20 cells (phosphorylation of AKT at serine 473); assay: PI3-Kα Cellular Assay (AKT Ser473 phosphorylation ELISA in BT20 cells); format: cell-based, human; conditions: Homo sapiens, BT-20, pAKT Ser473 ELISA, 1 hour incubation
Summary of the method: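 Cells seeded overnight in 0.5% FBS, then exposed 1 h at 37 °C to an 11-concentration 1:3 dilution series, in duplicate.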

Chain of PI3-Kα (P42337 whole entry, the tested form may be a part): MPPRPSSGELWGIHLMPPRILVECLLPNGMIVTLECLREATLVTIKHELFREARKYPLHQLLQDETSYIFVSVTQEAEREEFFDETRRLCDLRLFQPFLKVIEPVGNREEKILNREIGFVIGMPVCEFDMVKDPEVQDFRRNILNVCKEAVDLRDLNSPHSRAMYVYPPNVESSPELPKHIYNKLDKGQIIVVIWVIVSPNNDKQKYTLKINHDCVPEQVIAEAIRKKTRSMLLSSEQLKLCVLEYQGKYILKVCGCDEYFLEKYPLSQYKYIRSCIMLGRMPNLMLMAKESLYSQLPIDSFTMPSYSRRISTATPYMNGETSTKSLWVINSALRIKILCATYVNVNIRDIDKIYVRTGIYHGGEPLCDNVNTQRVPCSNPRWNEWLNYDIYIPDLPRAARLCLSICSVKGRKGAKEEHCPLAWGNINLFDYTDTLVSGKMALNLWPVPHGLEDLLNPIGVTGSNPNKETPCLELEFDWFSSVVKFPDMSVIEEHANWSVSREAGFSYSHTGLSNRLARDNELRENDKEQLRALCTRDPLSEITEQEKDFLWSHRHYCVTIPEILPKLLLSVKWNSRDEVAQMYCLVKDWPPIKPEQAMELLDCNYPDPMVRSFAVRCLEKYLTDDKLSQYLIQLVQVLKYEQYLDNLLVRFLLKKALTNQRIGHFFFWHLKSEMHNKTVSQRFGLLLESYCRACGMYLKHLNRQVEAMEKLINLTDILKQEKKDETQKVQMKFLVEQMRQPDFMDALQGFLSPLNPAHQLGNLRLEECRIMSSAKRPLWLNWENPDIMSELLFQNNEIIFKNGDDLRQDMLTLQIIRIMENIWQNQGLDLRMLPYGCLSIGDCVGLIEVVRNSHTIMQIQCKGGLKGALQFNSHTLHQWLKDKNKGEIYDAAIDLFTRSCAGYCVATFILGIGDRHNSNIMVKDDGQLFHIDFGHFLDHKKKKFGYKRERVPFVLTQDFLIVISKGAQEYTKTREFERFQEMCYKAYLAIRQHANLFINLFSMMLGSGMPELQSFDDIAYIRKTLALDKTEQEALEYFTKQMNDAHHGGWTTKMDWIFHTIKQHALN
Chain of PI3-Kα (P26450 whole entry partner, the tested form may be a part): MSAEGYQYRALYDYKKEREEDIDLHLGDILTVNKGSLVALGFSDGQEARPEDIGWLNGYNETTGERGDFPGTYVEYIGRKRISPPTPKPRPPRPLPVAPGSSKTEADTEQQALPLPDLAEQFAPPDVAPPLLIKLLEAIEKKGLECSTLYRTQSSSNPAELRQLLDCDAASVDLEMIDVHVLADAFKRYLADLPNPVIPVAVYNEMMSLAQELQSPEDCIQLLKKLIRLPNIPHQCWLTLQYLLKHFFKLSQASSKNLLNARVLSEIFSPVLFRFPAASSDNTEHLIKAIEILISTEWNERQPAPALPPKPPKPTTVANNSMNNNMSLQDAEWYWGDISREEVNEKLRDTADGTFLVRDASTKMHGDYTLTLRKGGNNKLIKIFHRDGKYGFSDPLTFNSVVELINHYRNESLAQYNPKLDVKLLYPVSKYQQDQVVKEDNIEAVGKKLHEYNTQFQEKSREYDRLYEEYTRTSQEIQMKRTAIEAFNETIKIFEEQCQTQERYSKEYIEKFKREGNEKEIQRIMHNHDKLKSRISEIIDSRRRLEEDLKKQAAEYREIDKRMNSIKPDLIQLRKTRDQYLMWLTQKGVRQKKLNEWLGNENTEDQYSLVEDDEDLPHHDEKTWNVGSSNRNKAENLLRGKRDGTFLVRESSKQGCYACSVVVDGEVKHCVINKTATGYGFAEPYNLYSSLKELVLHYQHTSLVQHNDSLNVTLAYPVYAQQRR

SMILES	IC50 (PI3-Kα) [nM]	IC50 [1] [nM]
Cc1nc(N)nc2c1cc(-c1cnc3[nH]ccc3c1)c(=O)n2C1CCOCC1 [Compound 201, 2-amino-4-methyl-6-(1H-pyrrolo[2,3-b]pyridin-5-yl)-8-(tetrahydro-2H-pyran-4-yl)pyrido[2,3-d]pyrimidin-7(8H)-one]	3.7	15.3
Cc1nc(N)nc2c1cc(Br)c(=O)n2C1CCOC1 (stereo not shown) [Compound 202, 2-amino-6-bromo-4-methyl-8-(tetrahydrofuran-3-yl)pyrido[2,3-d]pyrimidin-7(8H)-one]	230	1670
Cc1nc(N)nc2c1cc(-c1cn[nH]c1)c(=O)n2C1CCOC1 (stereo not shown) [Compound 203]	20	25.8
Cc1nc(N)nc2c1cc(-c1cnc3[nH]ccc3c1)c(=O)n2C1CCC1 [Compound 207, 2-amino-8-cyclobutyl-4-methyl-6-(1H-pyrrolo[2,3-d]pyridin-5-yl)pyrido[2,3-d]pyrimidin-7(8H)-one]	2	11.9
COc1ccc(-c2cc3c(C)nc(N)nc3n(C(C)C)c2=O)cn1 [Compound 209, 2-amino-8-isopropyl-6-(6-methoxypyridin-3-yl)-4-methylpyrido[2,3-d]pyrimidin-7(8H)-one]	11	64
Cc1nc(N)nc2c1cc(-c1cnc3[nH]ccc3c1)c(=O)n2C(C)C [Compound 210, 2-amino-8-isopropyl-4-methyl-6-(1H-pyrrolo[2,3-d]pyridin-5-yl)pyrido[2,3-d]pyrimidin-7(8H)-one]	2.3	6.77
Cc1nc(N)nc2c1cc(-c1cnc3[nH]ccc3c1)c(=O)n2C1CC1 [Compound 213, 2-amino-8-cyclopropyl-4-methyl-6-(1H-pyrrolo[2,3-b]pyridin-5-yl)pyrido[2,3-d]pyrimidin-7(8H)-one]	17	138
CNc1nc(C)c2cc(Br)c(=O)n(CC3CCOC3)c2n1 (stereo not shown) [Compound 214, 6-bromo-4-methyl-2-(methylamino)-8-((tetrahydrofuran-3-yl)methyl)pyrido[2,3-d]pyrimidin-7(8H)-one]	48	594
CNc1nc(C)c2cc(-c3cn[nH]c3)c(=O)n(CC3CCOC3)c2n1 (stereo not shown) [Compound 215, 4-methyl-2-(methylamino)-6-(1H-pyrazol-4-yl)-8-((tetrahydrofuran-3-yl)methyl)pyrido[2,3-d]pyrimidin-7(8H)-one]	6	22.1
CNc1nc(C)c2cc(-c3ccc(OC)nc3)c(=O)n(CC3CCOC3)c2n1 (stereo not shown) [Compound 216, 6-(6-methoxypyridin-3-yl)-4-methyl-2-(methylamino)-8-((tetrahydrofuran-3-yl)methyl)pyrido[2,3-d]pyrimidin-7(8H)-one]	4.6	45.6
CNc1nc(C)c2cc(-c3cnc4[nH]ccc4c3)c(=O)n(CC3CCOC3)c2n1 (stereo not shown) [Compound 217, 4-methyl-2-(methylamino)-6-(1H-pyrrolo[2,3-b]pyridin-5-yl)-8-((tetrahydrofuran-3-yl)methyl)pyrido[2,3-d]pyrimidin-7(8H)-one]	1.6	13.5
Cc1nc(N)nc2c1cc(Br)c(=O)n2CC1CCOC1 (stereo not shown) [Compound 218, 2-amino-6-bromo-4-methyl-8-((tetrahydrofuran-3-yl)methyl)pyrido[2,3-d]pyrimidin-7(8H)-one]	94	1020
Cc1nc(N)nc2c1cc(-c1cnc3[nH]ccc3c1)c(=O)n2CC1CCOC1 (stereo not shown) [Compound 221, 2-amino-4-methyl-6-(1H-pyrrolo[2,3-b]pyridin-5-yl)-8-((tetrahydrofuran-3-yl)methyl)pyrido[2,3-d]pyrimidin-7(8H)-one]	2.8	57.8
Cc1nc(N)nc2c1cc(Br)c(=O)n2CC1CCCO1 (stereo not shown) [Compound 222, 2-amino-6-bromo-4-methyl-8-((tetrahydrofuran-2-yl)methyl)pyrido[2,3-d]pyrimidin-7(8H)-one]	100	2130
COc1ccc(-c2cc3c(C)nc(N)nc3n(CC3CCCO3)c2=O)cn1 (stereo not shown) [Compound 224, 2-amino-6-(6-methoxypyridin-3-yl)-4-methyl-8-((tetrahydrofuran-2-yl)methyl)pyrido[2,3-d]pyrimidin-7(8H)-one]	21	120
Cc1nc(N)nc2c1cc(-c1cnc3[nH]ccc3c1)c(=O)n2CC1CCCO1 (stereo not shown) [Compound 225, 2-amino-4-methyl-6-(1H-pyrrolo[2,3-b]pyridin-5-yl)-8-((tetrahydrofuran-2-yl)methyl)pyrido[2,3-d]pyrimidin-7(8H)-one]	5.4	36.6

The remaining lines, values ahead:

IC50 (PI3-Kα) [nM]	IC50 [1] [nM]	SMILES
120	41.5	Cc1nc(N)nc2c1cc(-c1cn[nH]c1)c(=O)n2C1CN(C(=O)OC(C)(C)C)C1 [Compound 226, tert-butyl 3-(2-amino-4-methyl-7-oxo-6-(1H-pyrazol-4-yl)pyrido[2,3-d]pyrimidin-8(7H)-yl)azetidine-1-carboxylate]
29	318	COc1ccc(-c2cc3c(C)nc(N)nc3n(C3CN(C(=O)OC(C)(C)C)C3)c2=O)cn1 [Compound 227]
38	256	Cc1nc(N)nc2c1cc(-c1cnc3[nH]ccc3c1)c(=O)n2C1CN(C(=O)OC(C)(C)C)C1 [Compound 228, tert-butyl 3-(2-amino-4-methyl-7-oxo-6-(1H pyrrolo[2,3-b]pyridin-5 yl)pyrido[2,3-d]pyrimidin-8(7H)-yl)azetidine-1-carboxylate]
15	17.9	Cc1nc(N)nc2c1cc(-c1cnc(N)cn1)c(=O)n2C1CCCC1 [Compound 229, 2-amino-6-(5-aminopyrazin-2-yl)-8-cyclopentyl-4-methylpyrido[2,3-d]pyrimidin-7(8H)-one]
20	33.9	Cc1nc(N)nc2c1cc(-c1cncc(N)n1)c(=O)n2C1CCCC1 [Compound 230, 2-amino-6-(6-aminopyrazin-2-yl)-8-cyclopentyl-4-methylpyrido[2,3-d]pyrimidin-7(8H)-one]
170	3450	Cc1nc(N)nc2c1cc(-c1cccc(Cl)n1)c(=O)n2C1CCCC1 [Compound 231, 2-Amino-6-(6-chloro-pyridin-2-yl)-8-cyclopentyl-4-methyl-8H-pyrido[2,3-d]pyrimidin-7-one]
8.9	41.4	CNc1nc(C)c2cc(-c3ccc(OC)nc3)c(=O)n(CCC3CC3)c2n1 [Compound 232, 8-(2-Cyclopropyl-ethyl)-6-(6-methoxy-pyridin-3-yl)-4-methyl-2-methylamino-8H-pyrido[2,3-d]pyrimidin-7-one]
11	94.2	COc1ccc(-c2cc3c(C)nc(N)nc3n(CCC3CC3)c2=O)cn1 [Compound 233, 2-Amino-8-(2-cyclopropyl-ethyl)-6-(6-methoxy-pyridin-3-yl)-4-methyl-8H-pyrido[2,3-d]pyrimidin 7-one]
39	314	CNc1nc(C)c2cc(-c3cnn(C)c3)c(=O)n(C3CCCC3)c2n1 [Compound 234, 8-Cyclopentyl-4-methyl-2-methylamino-6-(1-melhyl-1H-pyrazol-4-yl)-8H-pyrido[2,3-d]pyrimidin-7-one]
46	10000	CNc1nc(C)c2cc(-c3cnn(CC(F)F)c3)c(=O)n(C3CCCC3)c2n1 [Compound 236, 8-Cyclopentyl-6-[1-(2,2-difluoro-ethyl)-1H pyrazol-4-yl]-4-methyl 2-methylamino-8H-pyrido[2,3 d]pyrimidin-7-one]
